Experimental findings from patent publication US12209038B2, “Effluent” (LINCOLN UNIVERSITY, priority 2019, dated 2025) are described below.

Like-named read-outs stand apart in the source and are kept apart here.

For assay [1] the following is noted: 200 mg Fe/L of FDE, same rate of PFS and FS. As for the experimental part: The objective of Experiment 6 was to compare the effectiveness of ferric sulphate (FS) versus polyferric sulphate (PFS) to reduce methane emissions from treated effluent. Experiment 6 was conducted using the same large (3.5 m deep×0.5 m diameter) PVC pipes described in Experiment 5. The gas capture equipment and measurement process were also identical to that described in Experiment 5.
There were three treatments: (i) untreated FDE; (ii) TE produced using PFS and (iii) TE produced using FS. There were four replicates of each treatment set out in a randomised block design. Five hundred and sixty litres of farm dairy effluent were pumped from the FDE storage pond on Lincoln University Dairy Farm into each column leaving a head space height of 10 cm. The same rate of PFS and FS was used (200 mg Fe/L of FDE). The PFS and FS solution was mixed into the effluent for two minutes using a handheld electric drill fitted with a paddle stirrer.

Assay [2] is described as follows: Experiment 7: glass jars, different sulphate and/or iron compounds, methane and hydrogen sulphide. As for the experimental part: The objective of Experiment 7 was to measure the effect of different sulphate and/or iron compounds on emissions of methane and hydrogen sulphide gases from treated effluent. The experiment was conducted using the same 1.5 L glass jars and methods of measurement described in Experiment 2 above. There were 10 treatments: (i) untreated FDE, (ii) PFS treated effluent, (iii) calcium sulphate (CaSO4) treated effluent, (iv) potassium sulphate (K2SO4) treated effluent, (v) aluminium sulphate (Al2(SO4)3) treated effluent, (vi) magnesium sulphate (MgSO4) treated effluent, (vii) sodium sulphate (Na2SO4) treated effluent, (viii), ferrous sulphate (i.e. the divalent form of iron sulphate) (FeSO4) treated effluent, (ix) ferric chloride (FeCl3) treated effluent, and (x) ferrous chloride (FeCl2) treated effluent. The sulphate treatment chemicals were all used at the same rate of sulphate as applied in the PFS treatment (326 mg SO4/L) and the iron treatment chemicals were all used at the same rate of iron as applied in the PFS treatment (133 mg Fe/L).

Setting [3] is: iron chemicals at 133 mg Fe/L, same iron rate as PFS treatment.

In the case of `O=S(=O)([O-])[O-].O=S(=O)([O-])[O-].O=S(=O)([O-])[O-].[Fe+3].[Fe+3]` [FS, ferric sulphate], in assay [1], the “effectiveness in reducing the methane emission flux compared with PFS” value is “equally as effective” and the “effectiveness in reducing the total amount of methane emitted compared with PFS” value is listed as “equally as effective”.

For the compound `O=S(=O)([O-])[O-].[Ca+2]` [calcium sulphate], in assay [2], the “amount of methane emitted from FDE” value is reported as “can be reduced”; the “effectiveness in reducing methane emitted compared with PFS” value is recorded as “none of these chemicals were as effective as PFS”; the “emission of hydrogen sulphide (H2S)” value was “continued to produce, or enhanced the production of”.

As for `[Cl][Fe]([Cl])[Cl]` [ferric chloride], the “effectiveness in reducing methane emission compared with PFS” value in assay [2] (setting [3]) is listed as “not nearly as effective”.

Regarding `[Cl][Fe][Cl]` [ferrous chloride], the “effectiveness in reducing methane emission compared with PFS” value in assay [2] (setting [3]) is listed as “not nearly as effective”.

As to `O=S(=O)([O-])[O-].[Fe+2]` [ferrous sulphate], in assay [2], the “effectiveness in reducing methane emission compared with PFS” value is “not nearly as effective”.

With `O=S(=O)([O-])[O-].[Mg+2]` [magnesium sulphate], in assay [2], the “amount of methane emitted from FDE” value is reported as “can be reduced”; the “effectiveness in reducing methane emitted compared with PFS” value is “none of these chemicals were as effective as PFS”; the “emission of hydrogen sulphide (H2S)” value is reported as “continued to produce, or enhanced the production of”.

With `O=S(=O)([O-])[O-].[K+].[K+]` [potassium sulphate], in assay [2], the “amount of methane emitted from FDE” value was “can be reduced”; the “effectiveness in reducing methane emitted compared with PFS” value is recorded as “none of these chemicals were as effective as PFS”; the “emission of hydrogen sulphide (H2S)” value is on record as “continued to produce, or enhanced the production of”.

On to `O=S(=O)([O-])[O-].[Na+].[Na+]` [sodium sulphate], for which, in assay [2], the “amount of methane emitted from FDE” value was “can be reduced”; the “effectiveness in reducing methane emitted compared with PFS” value is “none of these chemicals were as effective as PFS”; the “emission of hydrogen sulphide (H2S)” value was “continued to produce, or enhanced the production of”.
